Consider 14 molecules from PubChem BioAssay (NCI).

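Tested at 5 concentrations; 48 h exposure; 96-well plates; endpoints linearly interpolated, else capped at highest concentration. TGI is the concentration that stops growth completely.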 Where only a bound is given, the exact number is not on record here.

Some test systems named below: OVCAR-3 ovarian; MDA-N; UO-31 renal; MCF7 breast; OVCAR-8 ovarian; MALME-3M melanoma; HCT-116 colon; A549 NSCLC; IGROV1 ovarian; HCC-2998 colon.
Common to all, as to test: NCI tumour cell line growth inhibition, 48 h

As to `O=C(C1OC1c1ccc(Br)cc1O)C12CC3CC(CC(C3)C1)C2` (stereo not given), the TGI was 84.6 µM in the assay on OVCAR-3 ovarian; 32.8 µM with MDA-N; 31.3 µM in the assay on UO-31 renal; over 100 µM in the assay with MCF7 breast; over 100 µM with OVCAR-8 ovarian; 42.1 µM in the assay with MALME-3M melanoma. The TGI was 30.9 µM in the assay on HCT-116 colon, over 100 µM in the assay on A549 NSCLC, over 100 µM in the assay with IGROV1 ovarian and 47.6 µM with HCC-2998 colon.

Regarding `Cc1ccccc1C(=N)c1ccccc1Cc1cccc2ccccc12`, the TGI in the assay on OVCAR-3 ovarian is 26.6 µM; in the assay with MDA-N it was 65.7 µM; in the assay with UO-31 renal, over 100 µM; in the assay on MCF7 breast, 48.6 µM; in the assay with OVCAR-8 ovarian, over 100 µM; with MALME-3M melanoma, 27.3 µM. Besides, the TGI is 46.9 µM with HCT-116 colon, over 100 µM with A549 NSCLC, over 100 µM with IGROV1 ovarian and 36.7 µM with HCC-2998 colon.

Consider `O=C(/C=C/c1ccc2c(c1)OCO2)Cc1nc2ncccc2[nH]c1=O`, for which the TGI in the assay on OVCAR-3 ovarian, with MDA-N, in the assay with UO-31 renal, in the assay on MCF7 breast, in the assay on OVCAR-8 ovarian and in the assay on MALME-3M melanoma was over 100 µM in each case. Moreover, the TGI in the assay with HCT-116 colon, in the assay on A549 NSCLC, with IGROV1 ovarian and in the assay on HCC-2998 colon was over 100 µM each time.

In the case of `O=C(NCc1ccccc1)c1n[nH][nH]c1=O`, the TGI in the assay on OVCAR-3 ovarian, with MDA-N, in the assay on UO-31 renal, in the assay with MCF7 breast, in the assay on OVCAR-8 ovarian and in the assay on MALME-3M melanoma was over 100 µM in each case. In addition, the TGI with HCT-116 colon, with A549 NSCLC, with IGROV1 ovarian and with HCC-2998 colon was over 100 µM each time.

Consider `CCOC(=O)N1CCN(Cc2cc(=O)n3ccc(C)cc3n2)CC1`, for which the TGI with OVCAR-3 ovarian, in the assay with MDA-N, in the assay on UO-31 renal, in the assay with MCF7 breast, in the assay with OVCAR-8 ovarian and in the assay with MALME-3M melanoma was over 100 µM in each case. Besides, the TGI in the assay on HCT-116 colon, in the assay with A549 NSCLC, in the assay with IGROV1 ovarian and in the assay on HCC-2998 colon was over 100 µM in each case.

`CC(=O)N(C(=O)CC(=O)N1N=C(c2ccccc2)C(N=Nc2ccccc2[N+](=O)[O-])C1=O)c1ccc(Cl)cc1` (stereo not given): the TGI with OVCAR-3 ovarian, in the assay on MDA-N, in the assay with UO-31 renal, with MCF7 breast, in the assay with OVCAR-8 ovarian and in the assay on MALME-3M melanoma was over 10 µM each time. Moreover, the TGI in the assay on HCT-116 colon, in the assay on A549 NSCLC, in the assay with IGROV1 ovarian and in the assay with HCC-2998 colon was over 10 µM each time.

Regarding `c1ccc2c(c1)Cn1c-2nc2ccccc21`, the TGI in the assay on OVCAR-3 ovarian was over 100 µM; with MDA-N, over 100 µM; in the assay on UO-31 renal, 23 µM; with MCF7 breast it was over 100 µM; in the assay on OVCAR-8 ovarian it was over 100 µM; in the assay on MALME-3M melanoma it was over 100 µM. Also, the TGI in the assay on HCT-116 colon, with A549 NSCLC, in the assay with IGROV1 ovarian and with HCC-2998 colon was over 100 µM throughout.

Turning to `Nn1c(Nc2ccc(S(=O)(=O)Nc3ncccn3)cc2)nnc(/C=C/c2c(O)ccc3ccccc23)c1=O`, the TGI in the assay on OVCAR-3 ovarian was 55.9 µM; in the assay with MDA-N, over 100 µM; in the assay with UO-31 renal, over 100 µM; in the assay on MCF7 breast, 60.3 µM; in the assay with OVCAR-8 ovarian, over 100 µM; with MALME-3M melanoma, 75.8 µM. Moreover, the TGI in the assay with HCT-116 colon was 51.1 µM; in the assay with A549 NSCLC it was over 100 µM; with IGROV1 ovarian it was over 100 µM; in the assay with HCC-2998 colon, 57.7 µM.

`C#CCn1c(=O)c2ccccc2n(CC#C)c1=O`: the TGI in the assay on OVCAR-3 ovarian, with MDA-N, with UO-31 renal, in the assay with MCF7 breast, in the assay with OVCAR-8 ovarian and in the assay with MALME-3M melanoma was over 10 µM each time. The TGI in the assay on HCT-116 colon, with A549 NSCLC, in the assay with IGROV1 ovarian and with HCC-2998 colon was over 10 µM in each case.

For `Cc1oc2c(cc(O)c3cc(O)ccc32)c2cccc1-2`, the TGI in the assay with OVCAR-3 ovarian, with MDA-N, in the assay with UO-31 renal, with MCF7 breast, in the assay with OVCAR-8 ovarian and with MALME-3M melanoma was over 100 µM throughout. Moreover, the TGI with HCT-116 colon, with A549 NSCLC, in the assay on IGROV1 ovarian and in the assay with HCC-2998 colon was over 100 µM in each case.

`COc1ncc(/C=C2\OC(=O)c3ccccc32)c(OC)n1`: the TGI with OVCAR-3 ovarian, with MDA-N, in the assay with UO-31 renal, with MCF7 breast, in the assay with OVCAR-8 ovarian and in the assay on MALME-3M melanoma was over 100 µM each time. Moreover, the TGI in the assay on HCT-116 colon, in the assay with A549 NSCLC, in the assay with IGROV1 ovarian and in the assay with HCC-2998 colon was over 100 µM each time.

With `COc1cc(S(=O)(=O)Nc2nc(-c3ccc(N4C(=O)C(CC(=O)O)SC4c4cccs4)cc3)cs2)ccc1Cl` (stereo not given), the TGI is over 100 µM with OVCAR-3 ovarian; over 100 µM in the assay with MDA-N; 45.2 µM with UO-31 renal; 65.8 µM in the assay on MCF7 breast; over 100 µM with OVCAR-8 ovarian; 72.2 µM in the assay on MALME-3M melanoma. In addition, the TGI with HCT-116 colon is over 100 µM; in the assay with A549 NSCLC, over 100 µM; in the assay on IGROV1 ovarian it was 66 µM; in the assay on HCC-2998 colon, over 100 µM.

For `COc1ccc(C(=C2C=CC=C2)c2ccc(OC)cc2)cc1`, the TGI was over 100 µM in the assay on OVCAR-3 ovarian; over 100 µM with MDA-N; over 100 µM with UO-31 renal; 37.6 µM with MCF7 breast; over 100 µM in the assay on OVCAR-8 ovarian; 81.8 µM in the assay with MALME-3M melanoma. Moreover, the TGI with HCT-116 colon was 84.8 µM; in the assay with A549 NSCLC, over 100 µM; in the assay on IGROV1 ovarian, over 100 µM; with HCC-2998 colon, 42.6 µM.

As for `N[C@@H](CCC(=O)NCP(=O)(O)O)C(=O)O`, the TGI in the assay with OVCAR-3 ovarian, in the assay with MDA-N, with UO-31 renal, in the assay with MCF7 breast, with OVCAR-8 ovarian and with MALME-3M melanoma was over 100 µM in each case. For the same molecule, the TGI in the assay with HCT-116 colon, with A549 NSCLC, in the assay with IGROV1 ovarian and in the assay on HCC-2998 colon was over 100 µM in each case.
